From US12227480B1 (priority 2023, dated 2025)

What was measured:
[1] = test system: Mycobacterium tuberculosis MDR strain; experiment: microbe, parasite or virus in culture; assay type: cell-based; conditions: read-out: Anti-tubercular activity against Mycobacterium tuberculosis (MIC), MDR
[2] = test system: Mycobacterium tuberculosis XDR strain; experiment: microbe, parasite or virus in culture; assay type: cell-based; conditions: read-out: Anti-tubercular activity against Mycobacterium tuberculosis (MIC), XDR

SMILES: Cc1cc[n+](CC(=O)c2ccc(F)cc2)cc1.[Br-] [Compound 3d, 1-(2-(4-Fluorophenyl)-2-oxoethyl)-4-methylpyridin-1-ium bromide]
- MIC [1]: 8 µg/mL
- MIC [2]: 32 µg/mL
